In PubChem BioAssay (NCI):
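A five-concentration, 48-hour dose response in 96-well plates underlies each endpoint, interpolated linearly between surrounding concentrations. Abbreviation: GI50, concentration required for 50% inhibition of growth. TGI is the concentration that stops growth completely.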

Key:
Assay in all cases: growth of human tumour cells (NCI), 48 h
[1] = test system: HCT-116 colon
[2] = test system: TK-10 renal
[3] = test system: SK-MEL-28 melanoma
[4] = test system: DU-145 prostate
[5] = test system: LOX IMVI melanoma
[6] = test system: MCF7 breast
[7] = test system: 786-0 renal
[8] = test system: UACC-257 melanoma
[9] = test system: SF-268 CNS
[10] = test system: SN12C renal
[11] = test system: HCT-15 colon
[12] = test system: OVCAR-8 ovarian
[13] = test system: SK-OV-3 ovarian
[14] = test system: SR leukemia
[15] = test system: UACC-62 melanoma
[16] = test system: SW-620 colon
[17] = test system: MALME-3M melanoma
[18] = test system: A498 renal
[19] = test system: MDA-MB-231 breast
[20] = test system: T-47D breast
[21] = test system: HCC-2998 colon
[22] = test system: HOP-62 NSCLC
[23] = test system: MDA-MB-468 breast
[24] = test system: COLO 205 colon
[25] = test system: HOP-92 NSCLC
[26] = test system: EKVX NSCLC
[27] = test system: U251 CNS
[28] = test system: SF-295 CNS
[29] = test system: NCI-H23 lung
[30] = test system: OVCAR-5 ovarian
[31] = test system: SK-MEL-5 melanoma
[32] = test system: HS 578T breast
[33] = test system: M14 melanoma
[34] = test system: ACHN renal
[35] = test system: CAKI-1 renal
[36] = test system: MOLT-4 leukemia
[37] = test system: OVCAR-3 ovarian
[38] = test system: RXF 393 renal
[39] = test system: MDA-MB-435
[40] = test system: SK-MEL-2 melanoma
[41] = test system: KM12 colon
[42] = test system: SNB-19 CNS
[43] = test system: UO-31 renal
[44] = test system: A549 NSCLC
[45] = test system: SF-539 CNS
[46] = test system: PC-3 prostate
[47] = test system: K-562 leukemia
[48] = test system: CCRF-CEM leukemia
[49] = test system: NCI-H226 lung
[50] = test system: IGROV1 ovarian
[51] = test system: OVCAR-4 ovarian
[52] = test system: RPMI-8226 leukemia
[53] = test system: HL-60(TB) leukemia
[54] = test system: SNB-75 CNS

SMILES: O=C1Nc2cc(Cl)ccc2/C1=C/c1cccc(OCc2ccc(Br)cc2F)c1
- GI50 [1]: 3.1 µM
- TGI [1]: > 100 µM
- GI50 [2]: 14.3 µM
- TGI [2]: > 100 µM
- GI50 [3]: 4.47 µM
- TGI [3]: 24.1 µM
- GI50 [4]: 5.97 µM
- TGI [4]: > 100 µM
- GI50 [5]: 2.49 µM
- TGI [5]: 8.24 µM
- GI50 [6]: 0.642 µM
- TGI [6]: 27.8 µM
- GI50 [7]: 3.79 µM
- TGI [7]: > 100 µM
- GI50 [8]: 8.5 µM
- TGI [8]: > 100 µM
- GI50 [9]: 3.33 µM
- TGI [9]: > 100 µM
- GI50 [10]: 4.11 µM
- TGI [10]: > 100 µM
- GI50 [11]: 2.67 µM
- TGI [11]: 12.3 µM
- GI50 [12]: 4.32 µM
- TGI [12]: > 100 µM
- GI50 [13]: 14.6 µM
- TGI [13]: > 100 µM
- GI50 [14]: 2.15 µM
- TGI [14]: 5.07 µM
- GI50 [15]: 2.49 µM
- TGI [15]: 8.8 µM
- GI50 [16]: 2.89 µM
- TGI [16]: > 100 µM
- GI50 [17]: 4.15 µM
- TGI [17]: 20.9 µM
- GI50 [18]: 7.92 µM
- TGI [18]: 57.2 µM
- GI50 [19]: 2.63 µM
- TGI [19]: 12.5 µM
- GI50 [20]: 3.67 µM
- TGI [20]: > 100 µM
- GI50 [21]: 3.71 µM
- TGI [21]: > 100 µM
- GI50 [22]: 4.02 µM
- TGI [22]: 34.2 µM
- GI50 [23]: 2.43 µM
- TGI [23]: 8.88 µM
- GI50 [24]: 3.42 µM
- TGI [24]: > 100 µM
- GI50 [25]: 2.33 µM
- TGI [25]: 12.4 µM
- GI50 [26]: 3.23 µM
- TGI [26]: > 100 µM
- GI50 [27]: 3.79 µM
- TGI [27]: > 100 µM
- GI50 [28]: 3.16 µM
- TGI [28]: 14.9 µM
- GI50 [29]: 3.88 µM
- TGI [29]: > 100 µM
- GI50 [30]: 8.48 µM
- TGI [30]: > 100 µM
- GI50 [31]: 3.03 µM
- TGI [31]: 10.9 µM
- GI50 [32]: 2.17 µM
- TGI [32]: 5.82 µM
- GI50 [33]: 2.17 µM
- TGI [33]: 5.71 µM
- GI50 [34]: 3.94 µM
- TGI [34]: > 100 µM
- GI50 [35]: 2.54 µM
- TGI [35]: 13.9 µM
- GI50 [36]: 2.92 µM
- TGI [36]: 9.41 µM
- GI50 [37]: 2.53 µM
- TGI [37]: 7.82 µM
- GI50 [38]: 4.47 µM
- TGI [38]: 50.4 µM
- GI50 [39]: 1.82 µM
- TGI [39]: 3.41 µM
- GI50 [40]: 2.16 µM
- TGI [40]: 5.35 µM
- GI50 [41]: 3.65 µM
- TGI [41]: 41 µM
- GI50 [42]: 3.9 µM
- TGI [42]: > 100 µM
- GI50 [43]: 2.05 µM
- TGI [43]: > 100 µM
- GI50 [44]: 4.66 µM
- TGI [44]: > 100 µM
- GI50 [45]: 1.99 µM
- TGI [45]: 4.34 µM
- GI50 [46]: 3.89 µM
- TGI [46]: > 100 µM
- GI50 [47]: 2.67 µM
- TGI [47]: 8.56 µM
- GI50 [48]: 2.91 µM
- TGI [48]: 10.9 µM
- GI50 [49]: 3.09 µM
- TGI [49]: > 100 µM
- GI50 [50]: 2.71 µM
- TGI [50]: 97.7 µM
- GI50 [51]: 3.55 µM
- TGI [51]: 47.2 µM
- GI50 [52]: 2.35 µM
- TGI [52]: 12.6 µM
- GI50 [53]: 1.85 µM
- TGI [53]: 4.53 µM
- GI50 [54]: 1.83 µM
- TGI [54]: 5.11 µM
